≈ marks a conversion by molar mass, not a printed value. Like-named read-outs stand apart in the source and are kept apart here.
Legend:
[1] = system: human colon carcinoma cells HCT-15; assay: Human colon tumor test in vitro, HCT-15 cell growth inhibition; type: cell-based; conditions: for IC50: Homo sapiens, HCT-15, 72 h, read-out: in vitro HCT-15 ID50 (50 percent inhibition of number of doublings); for in vitro HCT-15 ID50 (50 percent inhibition of number of doublings): 4320 min
Protocol: The compound of this invention were also tested for their ability to inhibit the growth of human colon carcinoma cells in vitro.
The human colon carcinoma cells, designated HCT-15, were derived from a specimen of an adenocarcinoma of human colon removed during surgery. The cells were grown in Roswell Park Medical Institute (RPMI) Medium 1640 supplemented with 10% heat inactivated fetal calf serum, penicillin (100 units/ml), streptomycin (100 μg/ml), gentamicin (20 μg/ml), fungizone (25 μg/ml), 0.075 percent sodium bicarbonate, […] 4-(2-hydroxyethyl)-1-piperazineethanesulfonic acid and […] N-tris(hydroxymethyl)methylglycine. […] On day 1 cells from sample dishes were harvested using trypsin (0.25%) treatment and counted with a hemocytometer to determine the number of cells per dish at the time of the addition of the compounds. Compounds of this invention were added in varying concentrations to other cultures. On day 4, treated and control cultures were harvested by trypsin treatment and the number of cells was determined. The number of doublings for the control cells was determined from the cell numbers on days 1 and 4. The ID50, the concentration of compound required to inhibit by 50 percent the number of doublings, was then calculated from the dose-response curve in which cell numbers were plotted on log-log paper against compound concentrations in micrograms per ml.

L1210 leukemia = assay: Lymphoid Leukemia L1210, survival of tumored mice; type: in vivo, CD2F1 mice; conditions: for response vs control in vivo at 400 mg/kg: 400 mg/kg i.p.; for response vs control in vivo at 50 mg/kg: 50 mg/kg i.p.; for response vs control in vivo at 25 mg/kg: 25 mg/kg i.p.; for response vs control in vivo at 200 mg/kg: 200 mg/kg i.p.; for response vs control in vivo at 300 mg/kg: 300 mg/kg i.p.
Protocol: The efficacy of the compounds of this invention against the transplanted mouse tumors was evaluated in test systems currently in use at the National Cancer Institute for the detection and assessment of anticancer activity. […] J. Cancer, 17, 129-142, (1981); Venditti, J. M., Seminars in Oncology, 8 (4) (1981); Goldin, A. and J. M. Venditti, in Recent Results in Cancer Research, 70, S. K. Carter and Y. Sakurai, Eds., Springer-Verlag, Berlin/Heidelberg, 1980].
The animals used in this test were CD2 F1 mice, all males weighing a minimum of 18 g and all within a 4 g weight range at the start of the test. The test group consisted of six mice. The tumor was implanted in each of the test mice by the intraperitoneal injection of 0.1 ml of diluted ascitic fluid containing 10^5 cells drawn from a mouse with L1210 leukemia. The test compounds were suspended in hydroxypropylcellulose or saline with Tween® 80 surfactant or dissolved in saline and injected intraperitoneally, at various doses, once daily for nine consecutive days starting on day one relative to the day of tumor inoculation (day 0). The control mice received injections of saline or hydroxypropylcellulose vehicle only. The mice were weighed and survivors were recorded on a regular basis for 30 days. The median survival time and the ratio of the median survival time for the treated (T) and control (C) mice was calculated. […] Drug effectiveness was assessed on the basis of the survival time. Results were expressed as a percentage of the control survival time (Median Survival Time: T/C ×100%). The criterion for effectiveness was determined by: T/C×100≥125 percent.

[2] = Mus musculus, L1210, ip, 720 h, read-out: L1210 Leukemia % T/C (median survival time)
[3] = HCT-15 cells, compound day 1 to day 4
[4] = Mus musculus, L1210, ip, 720 h, 100 mg/kg i.p., read-out: L1210 Leukemia % T/C (median survival time)
[5] = Mus musculus, L1210, ip, 720 h, 37.5 mg/kg i.p., nonoptimal Q1DX9 instead of Q3DX9, read-out: L1210 Leukemia % T/C (median survival time)
[6] = Mus musculus, L1210, ip, 720 h, nonoptimal Q1DX9 instead of Q3DX9, read-out: L1210 Leukemia % T/C (median survival time)

COc1cccc2c1C(=O)c1c(O)c3c(c(O)c1C2=O)C[C@@](O)(C(=O)CO)C[C@@H]3O[C@H]1C[C@H](N)[C@H](O)[C@H](C)O1 [Adriamycin, reference compound]
IC50 [1]: 0.01 µg/mL (≈ 0.0184 µM)
response vs control in vivo at 2 mg/kg (L1210 leukemia; [2]): 183%

CCCCCCc1ccc(-c2nc3ccc(F)cc3c(C(=O)O)c2C)cc1 [Example 8]
IC50 [1, 3]: 0.4 µg/mL (≈ 1.09 µM)
response vs control in vivo at 400 mg/kg (L1210 leukemia; [2]): 147%

Cc1c(-c2ccc(-c3ccc(F)cc3)cc2)nc2ccc(F)cc2c1C(=O)O [Example 31]
IC50 [1, 3]: < 0.5 µg/mL
L1210 Leukemia % T/C (median survival time) (L1210 leukemia; 37.5 mg/kg i.p.): 218%

Cc1ccc2nc(-c3ccc(-c4ccccc4)cc3)c(C)c(C(=O)O)c2c1 [Example 14]
IC50 [1, 3]: 0.38 µg/mL (≈ 1.08 µM)
response vs control in vivo at 50 mg/kg (L1210 leukemia; [2]): 195%

CCc1c(-c2ccc(-c3ccccc3)cc2)nc2ccc(F)cc2c1C(=O)O [Example 108]
in vitro HCT-15 ID50 (50 percent inhibition of number of doublings) [1, 3]: 0.10 µg/mL
L1210 Leukemia % T/C (median survival time) (L1210 leukemia; 100 mg/kg i.p.): 166%

Cc1c(-c2ccc(-c3ccccc3)cc2)nc2ccc(Cl)cc2c1C(=O)O [Example 19]
IC50 [1, 3]: < 0.5 µg/mL
response vs control in vivo at 25 mg/kg (L1210 leukemia; [2]): 234%

Cc1c(-c2ccc(-c3ccccc3)cc2)nc2cc(Cl)cc(Cl)c2c1C(=O)O [Example 82]
IC50 [1, 3]: > 1 µg/mL
response vs control in vivo at 100 mg/kg (L1210 leukemia; [4]): 144%

COc1ccc(-c2ccc(-c3nc4ccc(Cl)cc4c(C(=O)O)c3C)cc2)cc1 [Example 24]
in vitro HCT-15 ID50 (50 percent inhibition of number of doublings) [1, 3]: 0.28 µg/mL
response vs control in vivo at 400 mg/kg (L1210 leukemia; [2]): 154%

Cc1c(-c2ccc(Oc3ccccc3)cc2)nc2ccc(Cl)cc2c1C(=O)O [Example 20]
IC50 [1, 3]: < 0.5 µg/mL
response vs control in vivo at 200 mg/kg (L1210 leukemia; [2]): 211%

O=C(O)c1cc(-c2ccc(-c3ccccc3)cc2)nc2ccc(F)cc12 [Example 33]
IC50 [1, 3]: < 0.5 µg/mL
response vs control in vivo at 200 mg/kg (L1210 leukemia; [2]): 170%

CCc1c(-c2ccc(-c3ccccc3)cc2)nc2ccc(F)cc2c1C(=O)O [Example 18]
in vitro HCT-15 ID50 (50 percent inhibition of number of doublings) [1, 3]: < 0.50 µg/mL
response vs control in vivo at 100 mg/kg (L1210 leukemia; [4]): 185%

Cc1c(-c2ccc(Cc3ccccc3)cc2)nc2ccc(Cl)cc2c1C(=O)O [Example 112]
IC50 [1, 3]: < 0.5 µg/mL
response vs control in vivo at 25 mg/kg (L1210 leukemia; [2]): 128%

Cc1ccc2nc(-c3ccc(C4CCCCC4)cc3)c(C)c(C(=O)O)c2c1 [Example 96]
in vitro HCT-15 ID50 (50 percent inhibition of number of doublings) [1, 3]: < 0.50 µg/mL
response vs control in vivo at 37.5 mg/kg (L1210 leukemia; [5]): 97%

O=C(O)c1cc(-c2ccc(C3CCCCC3)cc2)nc2ccc(F)cc12 [Example 5]
IC50 [1, 3]: 0.02 µg/mL (≈ 0.0572 µM)
response vs control in vivo at 400 mg/kg (L1210 leukemia; [2]): 141%

Cc1ccc2nc(-c3ccc(-c4ccccc4)cc3)c(C)c(C(=O)O)c2c1Cl [Example 83]
IC50 [1, 3]: > 1 µg/mL
response vs control in vivo at 100 mg/kg (L1210 leukemia; [4]): 198%

Cc1c(-c2ccc(C3CCCCC3)cc2)nc2ccc(F)cc2c1C(=O)O [Example 181]
in vitro HCT-15 ID50 (50 percent inhibition of number of doublings) [1, 3]: < 0.50 µg/mL
response vs control in vivo at 37.5 mg/kg (L1210 leukemia; [5]): 108%

Cc1c(-c2ccc(Sc3ccccc3)cc2)nc2ccc(Cl)cc2c1C(=O)O [Example 111]
IC50 [1, 3]: < 0.5 µg/mL
response vs control in vivo at 25 mg/kg (L1210 leukemia; [2]): 125%

Cc1c(-c2ccc(-c3ccccc3F)cc2)nc2ccc(F)cc2c1C(=O)O [Example 28, 2-(2'-Fluoro-1,1'-biphenyl-4-yl)-6-fluoro-3-methyl4-quinolinecarboxylic acid]
IC50 [1, 3]: < 0.5 µg/mL
response vs control in vivo at 18 mg/kg (L1210 leukemia; Mus musculus, L1210, ip, 720 h, 18 mg/kg i.p., read-out: L1210 Leukemia % T/C (median survival time)): 174%

Cc1c(-c2ccc(-c3ccccc3)cc2)nc2c(Br)cc(Br)cc2c1C(=O)O [Example 60]
IC50 [1, 3]: < 0.5 µg/mL
response vs control in vivo at 300 mg/kg (L1210 leukemia; [2]): 192%

Cc1ccc(-c2ccc(-c3nc4ccc(F)cc4c(C(=O)O)c3C)cc2)cc1 [Example 30]
IC50 [1, 3]: < 0.5 µg/mL
response vs control in vivo at 300 mg/kg (L1210 leukemia; [2]): 291%

Cc1c(-c2ccc(-c3ccccc3)cc2)nc2cc(Cl)c(Cl)cc2c1C(=O)O [Example 137]
in vitro HCT-15 ID50 (50 percent inhibition of number of doublings) [1, 3]: > 5.00 µg/mL
response vs control in vivo at 50 mg/kg (L1210 leukemia; [6]): 107%

Cc1c(-c2cc(-c3ccccc3)cs2)nc2ccc(F)cc2c1C(=O)O [Example 44]
IC50 [1, 3]: < 0.1 µg/mL
response vs control in vivo at 100 mg/kg (L1210 leukemia; [4]): 136%

CCCCCCCCCCc1ccc(-c2nc3ccc(F)cc3c(C(=O)O)c2C)cc1 [Example 7]
in vitro HCT-15 ID50 (50 percent inhibition of number of doublings) [1, 3]: 2.30 µg/mL
response vs control in vivo at 200 mg/kg (L1210 leukemia; [2]): 136%

Cc1c(-c2ccc(C3CCCCC3)cc2)nc2c(Br)cc(Br)cc2c1C(=O)O [Example 136]
in vitro HCT-15 ID50 (50 percent inhibition of number of doublings) [1, 3]: > 0.50 µg/mL
response vs control in vivo at 25 mg/kg (L1210 leukemia; [6]): 103%

CCCCCCc1ccc(-c2nc3ccc(F)cc3c(C(=O)O)c2C)cc1 [Example 180]
in vitro HCT-15 ID50 (50 percent inhibition of number of doublings) [1, 3]: < 0.50 µg/mL
response vs control in vivo at 18 mg/kg (L1210 leukemia; Mus musculus, L1210, ip, 720 h, 18 mg/kg i.p., nonoptimal Q1DX9 instead of Q3DX9, read-out: L1210 Leukemia % T/C (median survival time)): 101%

Cc1c(-c2ccc(SC(C)C)cc2)nc2ccc(F)cc2c1C(=O)O [Example 103]
in vitro HCT-15 ID50 (50 percent inhibition of number of doublings) [1, 3]: 0.17 µg/mL
response vs control in vivo at 200 mg/kg (L1210 leukemia; [6]): 108%

Cc1c(-c2ccc(-c3ccccc3)cc2)nc2ccc(Cl)cc2c1C(=O)O [Example 171]
in vitro HCT-15 ID50 (50 percent inhibition of number of doublings) [1, 3]: < 0.50 µg/mL
L1210 Leukemia % T/C (median survival time) (L1210 leukemia; 100 mg/kg i.p.): 164%

Cc1c(-c2ccc(C3CCCCC3)cc2)nc2ccc(Br)cc2c1C(=O)O [Example 45]
in vitro HCT-15 ID50 (50 percent inhibition of number of doublings) [1, 3]: 0.13 µg/mL
response vs control in vivo at 400 mg/kg (L1210 leukemia; [2]): 160%

Cc1c(-c2ccc(Oc3ccccc3)cc2)nc2cc(Cl)ccc2c1C(=O)O [Example 50]
IC50 [1, 3]: > 5 µg/mL
response vs control in vivo at 100 mg/kg (L1210 leukemia; [4]): 131%

CCc1ccc(-c2ccc(-c3nc4ccc(F)cc4c(C(=O)O)c3C)cc2)cc1 [Example 130]
in vitro HCT-15 ID50 (50 percent inhibition of number of doublings) [1, 3]: > 1.0 µg/mL
response vs control in vivo at 50 mg/kg (L1210 leukemia; [2]): 132%

Cc1c(-c2ccc(Oc3ccc(Cl)cc3)cc2)nc2ccc(F)cc2c1C(=O)O [Example 119]
in vitro HCT-15 ID50 (50 percent inhibition of number of doublings) [1, 3]: < 0.50 µg/mL
L1210 Leukemia % T/C (median survival time) (L1210 leukemia; 18 mg/kg i.p.): 170%

Cc1c(-c2ccc(Oc3ccccc3)cc2)nc2ccc(C(F)(F)F)cc2c1C(=O)O [Example 57]
IC50 [1, 3]: < 0.5 µg/mL
response vs control in vivo at 150 mg/kg (L1210 leukemia; Mus musculus, L1210, ip, 720 h, 150 mg/kg i.p., read-out: L1210 Leukemia % T/C (median survival time)): 197%

Cc1c(-c2ccc(OCc3ccccc3)cc2)nc2ccc(F)cc2c1C(=O)O [Example 16]
IC50 [1, 3]: 1 µg/mL (≈ 2.58 µM)
response vs control in vivo at 400 mg/kg (L1210 leukemia; [2]): 190%

Cc1c(-c2ccc(-c3ccccc3)cc2)nc2cc(Cl)ccc2c1C(=O)O [Example 49]
IC50 [1, 3]: > 5 µg/mL
response vs control in vivo at 200 mg/kg (L1210 leukemia; [2]): 174%

Cc1c(-c2ccc(-c3ccccc3)cc2)nc2cc(F)ccc2c1C(=O)O [Example 87]
IC50 [1, 3]: < 0.5 µg/mL
response vs control in vivo at 100 mg/kg (L1210 leukemia; [4]): 146%

Cc1c(-c2ccc(-c3ccccc3)cc2)nc2ccc(Cl)cc2c1C(=O)O [Example 109]
in vitro HCT-15 ID50 (50 percent inhibition of number of doublings) [1, 3]: < 0.50 µg/mL
response vs control in vivo at 100 mg/kg (L1210 leukemia; [4]): 172%

Reference: US5032597A, “Method of using phenylquinolinecarboxylic acids and derivatives for lymthoid leukemia treatment in a mammal” (priority 1987, dated 1991)
